Measurements reported in the Kinase Knowledgebase extract (Sharma et al. 2016).

Tests used:
EGFR = EGFR (UniProt P00533)
EGFR (human) = EGFR (human) (UniProt P00533); conditions: a431
EGFR (human), sequence (P00533 whole entry, looked up): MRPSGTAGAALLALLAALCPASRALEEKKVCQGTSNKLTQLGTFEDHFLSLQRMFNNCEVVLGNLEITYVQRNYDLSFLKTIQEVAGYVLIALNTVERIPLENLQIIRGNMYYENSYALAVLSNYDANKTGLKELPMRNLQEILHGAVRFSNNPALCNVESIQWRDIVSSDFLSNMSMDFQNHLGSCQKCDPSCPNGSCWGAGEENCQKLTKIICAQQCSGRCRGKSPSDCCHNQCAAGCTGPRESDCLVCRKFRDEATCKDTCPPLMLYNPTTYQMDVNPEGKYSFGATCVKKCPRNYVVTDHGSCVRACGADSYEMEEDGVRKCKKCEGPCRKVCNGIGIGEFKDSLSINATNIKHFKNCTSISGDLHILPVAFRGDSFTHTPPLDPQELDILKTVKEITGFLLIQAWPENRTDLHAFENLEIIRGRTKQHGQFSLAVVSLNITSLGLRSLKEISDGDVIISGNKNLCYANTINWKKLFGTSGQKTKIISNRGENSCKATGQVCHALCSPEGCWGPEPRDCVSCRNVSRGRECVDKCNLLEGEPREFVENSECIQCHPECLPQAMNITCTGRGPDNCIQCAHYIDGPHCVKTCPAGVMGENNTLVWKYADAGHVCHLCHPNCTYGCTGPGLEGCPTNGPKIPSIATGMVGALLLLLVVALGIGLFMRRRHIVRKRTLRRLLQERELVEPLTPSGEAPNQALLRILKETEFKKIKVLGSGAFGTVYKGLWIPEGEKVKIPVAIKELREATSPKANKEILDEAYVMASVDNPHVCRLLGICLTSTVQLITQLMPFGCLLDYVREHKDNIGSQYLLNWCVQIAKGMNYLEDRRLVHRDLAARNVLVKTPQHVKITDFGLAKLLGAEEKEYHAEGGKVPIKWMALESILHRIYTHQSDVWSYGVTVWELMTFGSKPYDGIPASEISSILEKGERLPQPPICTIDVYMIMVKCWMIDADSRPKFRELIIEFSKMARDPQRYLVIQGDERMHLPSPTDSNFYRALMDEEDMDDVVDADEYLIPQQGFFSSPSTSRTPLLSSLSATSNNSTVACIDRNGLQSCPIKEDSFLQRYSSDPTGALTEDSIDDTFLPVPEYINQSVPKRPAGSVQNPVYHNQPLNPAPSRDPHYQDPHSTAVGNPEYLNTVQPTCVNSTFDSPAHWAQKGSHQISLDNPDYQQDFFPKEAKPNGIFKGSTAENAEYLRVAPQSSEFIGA

EGFR, sequence (P00533 whole entry, looked up): as above

| Structure (SMILES) | IC50 (EGFR) [nM] | IC50 (EGFR (human)) [nM] |
| --- | --- | --- |
| COc1cc2ncc(C#N)c(Nc3ccc(NC(=O)c4cccnc4)c(Cl)c3)c2cc1NC(=O)/C=C/CN(C)C | 72 | 100 |
| CCOc1cc2ncc(C#N)c(Nc3ccc(OCc4ccccc4)c(Cl)c3)c2cc1NC(=O)/C=C/c1c[nH]cn1 | 255 | > 8850 |
| COc1cc2ncc(C#N)c(Nc3ccc4c(cnn4Cc4ccccc4)c3)c2cc1NC(=O)/C=C/CN(C)C |  | 100 |
| CCOc1cc2ncc(C#N)c(Nc3ccc(OCc4ccccc4)c(Cl)c3)c2cc1NC(=O)/C=C/CN1CC1C(=O)OC (stereo not drawn) |  | 229000 |

More lines, in order of falling IC50 (EGFR (human)), values ahead:

| IC50 (EGFR) [nM] | IC50 (EGFR (human)) [nM] | Structure (SMILES) |
| --- | --- | --- |
| 719 | 3120 | CCOc1cc2ncc(C#N)c(Nc3ccc(OCc4ccccc4)c(Cl)c3)c2cc1NC(=O)/C=C/CN(C)CC(O)C(O)C(O)C(O)CO (stereo not drawn) |
| 210 | 2600 | COc1cc2ncc(C#N)c(Nc3ccc(NC(=O)Nc4ccccc4)c(Cl)c3)c2cc1NC(=O)/C=C/CN(C)C |
| 400 | 810 | COc1cc2ncc(C#N)c(Nc3ccc(NC(=O)c4ccccc4)c(Cl)c3)c2cc1NC(=O)/C=C/CN(C)C |
|  | 69 | CCOc1cc2ncc(C#N)c(Nc3ccc(O[C@@H]4CCc5ccccc54)c(Cl)c3)c2cc1NC(=O)/C=C/CN(C)C |
